Assay results as given in patent US20250091994A1, “RAS/RAF BINDING INHIBITOR COMPOUND” (NATIONAL UNIVERSITY CORPORATION KOBE UNIVERSITY, priority 2021, published 2025).

Key:
[1] = test system: phosphorylated MEK (pMEK) in HL60 cells; test: Ras-Raf signaling inhibition at culture cell level, pMEK; format: cell-based; details: Homo sapiens, HL-60; HL60 (N-RasQ61L), 1 μM test compound, 3 hours
Protocol: The Ras-Raf signaling inhibitory activity of the compound of the present invention at a culture cell level was evaluated by the following method.
The HL60 cells described in Test Example 2 suspended in a medium containing 0.5% (v/v) FBS with each compound solution (final DMSO concentration: 1%), were seeded on a 12-well plate (2 to 4×10^5 cells/well), and the resulting mixture was then cultured at 37° C. in the presence of 5% CO2 for 3 hours.
After completion of the cell culture, proteins were extracted from the cells, using RIPA Buffer (Nacalai Tesque) containing a mixture of protease inhibitors and phosphatase inhibitors. An equivalent amount of protein was separated by standard SDS-PAGE and was then transferred onto a PVDF membrane. In order to detect the activation (phosphorylation) of MEK and ERK, downstream molecules of the Ras-Raf signaling pathway, the membrane was probed with 1000-fold diluted primary antibodies {phosphorylated MEK (pMEK: #9121), phosphorylated ERK (pERK: #9101), total MEK (tMEK: #9122), and total ERK (tERK: 9102); all from Cell signaling}, and then with a 1000-fold diluted horseradish peroxidase-labeled secondary antibody against rabbit immunoglobulin G. The immunoreactive signals were colored with EzWestLumi One (ATTO), and were then detected by Fusion FX (Vilber). Signal intensity was quantified by pixel counting. Inhibition by the test compound was determined according to the following equation: […]

[2] = test system: small cell lung cancer cells SHP77 (K-RasG12V); test: Cell growth inhibition, suspension cells SHP77; format: cell-based; details: Homo sapiens, 1 μM, 72 hours, read-out: SHP77 (KRasG12V) % inhibition at 1 μM
In short: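 Suspension cells, 2 to 4×10^4 per well, cultured with compound in medium with 0.5% FBS (1% DMSO final) for 72 h at 37° C, 5% CO2. Viable cells counted with Cell Counting Reagent; inhibition calculated relative to controls.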

[3] = target: GTPγS-bound human HRasG12V / human c-Raf-1 Ras binding domain (RBD) (Homo sapiens (Human), UniProt P01112, G12V); test: Ras-Raf binding inhibition ELISA; details: anti-HRas antibody C-20; read-out: ELISA IC50 (μM): 1st Ab_C-20
In short: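 GST-c-Raf-1 RBD (aa 50-131) immobilized on glutathione plates, then GTPγS-loaded full-length HRasG12V added with compound (final 10% DMSO), 1 h at 30 °C, pH 7.4 Tris buffer. Bound Ras detected by anti-HRas antibody (C-20 or 259) and HRP secondary, TMB read at OD450; IC50 from inhibition.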

GTPγS-bound human HRasG12V / human c-Raf-1 Ras binding domain (RBD), sequence (P01112 whole entry G12V, the tested form may be a part): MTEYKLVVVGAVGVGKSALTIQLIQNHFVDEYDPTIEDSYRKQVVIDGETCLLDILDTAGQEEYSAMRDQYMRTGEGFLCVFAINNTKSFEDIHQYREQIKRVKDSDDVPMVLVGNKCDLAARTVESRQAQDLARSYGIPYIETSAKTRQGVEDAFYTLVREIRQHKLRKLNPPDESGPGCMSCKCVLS

CC(=O)N1/C(=C\c2nc3cc(C(=O)N4CCOCC4)ccc3s2)C(=O)c2ccccc21 [Example 47, (Z)-1-acetyl-2-((5-(morpholine-4-carbonyl)benzo [d]thiazol-2-yl)-methylene)-indolin-3-one]
inhibition at 1 µM [1]: 88% | inhibition at 1 µM [2]: 61% | IC50 [3]: 3.9 µM
